Experimental data taken from ChEMBL document CHEMBL1142734, “Biological properties of D- and L-1-deoxyazasugars” (J Med Chem, 2005).

How the values were obtained:
[1] = target: T1, Tissue alpha-L-fucosidase (Bos taurus, UniProt Q2KIM0); assay: Inhibitory concentration against bovine alpha-L-fucosidase
T1 sequence (Q2KIM0 whole entry): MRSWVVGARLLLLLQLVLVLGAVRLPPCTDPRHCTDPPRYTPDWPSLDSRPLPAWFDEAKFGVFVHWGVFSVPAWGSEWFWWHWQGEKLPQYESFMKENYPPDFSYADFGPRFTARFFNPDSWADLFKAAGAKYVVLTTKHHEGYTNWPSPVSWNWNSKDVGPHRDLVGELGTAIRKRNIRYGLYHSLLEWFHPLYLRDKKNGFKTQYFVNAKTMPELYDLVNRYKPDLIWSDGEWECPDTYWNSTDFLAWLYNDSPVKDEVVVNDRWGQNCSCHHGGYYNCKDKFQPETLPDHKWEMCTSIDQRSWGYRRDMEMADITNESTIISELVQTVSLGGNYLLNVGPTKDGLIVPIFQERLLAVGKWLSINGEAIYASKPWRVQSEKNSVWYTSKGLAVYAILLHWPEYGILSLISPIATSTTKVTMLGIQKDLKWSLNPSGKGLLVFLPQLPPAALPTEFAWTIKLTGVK

[2] = target: T1, Tissue alpha-L-fucosidase; assay: Ki value against bovine alpha-L-fucosidase
[3] = target: T2, Lysosomal alpha-mannosidase (Homo sapiens) (UniProt O00754); assay: Percent inhibition of human alpha-mannosidase at 1000 uM
T2 sequence (whole entry): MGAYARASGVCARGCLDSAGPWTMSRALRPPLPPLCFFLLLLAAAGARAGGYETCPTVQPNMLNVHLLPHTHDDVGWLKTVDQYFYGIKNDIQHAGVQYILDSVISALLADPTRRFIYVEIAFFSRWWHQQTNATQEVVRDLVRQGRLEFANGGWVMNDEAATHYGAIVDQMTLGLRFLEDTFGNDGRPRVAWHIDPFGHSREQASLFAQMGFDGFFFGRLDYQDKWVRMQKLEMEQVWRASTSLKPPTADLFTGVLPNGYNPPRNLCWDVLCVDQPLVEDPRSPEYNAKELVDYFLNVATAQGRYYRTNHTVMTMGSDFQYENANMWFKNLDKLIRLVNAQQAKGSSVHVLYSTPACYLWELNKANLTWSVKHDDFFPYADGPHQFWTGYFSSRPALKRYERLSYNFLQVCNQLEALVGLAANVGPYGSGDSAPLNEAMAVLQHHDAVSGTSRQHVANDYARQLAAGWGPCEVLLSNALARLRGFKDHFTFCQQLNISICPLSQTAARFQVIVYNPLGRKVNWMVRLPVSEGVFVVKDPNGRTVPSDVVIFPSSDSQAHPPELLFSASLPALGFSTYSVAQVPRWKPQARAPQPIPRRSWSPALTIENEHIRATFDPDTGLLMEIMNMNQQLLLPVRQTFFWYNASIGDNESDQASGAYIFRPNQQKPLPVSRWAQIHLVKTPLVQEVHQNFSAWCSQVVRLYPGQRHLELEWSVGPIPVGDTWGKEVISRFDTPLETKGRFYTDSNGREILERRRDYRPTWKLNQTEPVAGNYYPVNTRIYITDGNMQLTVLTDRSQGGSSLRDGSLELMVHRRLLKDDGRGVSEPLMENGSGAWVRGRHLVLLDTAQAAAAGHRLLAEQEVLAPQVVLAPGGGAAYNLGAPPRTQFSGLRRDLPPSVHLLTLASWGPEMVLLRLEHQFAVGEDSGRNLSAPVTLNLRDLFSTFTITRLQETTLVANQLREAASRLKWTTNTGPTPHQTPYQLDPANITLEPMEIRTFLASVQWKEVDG

[4] = target: Alpha-galactosidase (Coffea arabica) (UniProt Q5DUH8); conditions: 1000 uM
Sequence of Alpha-galactosidase (Coffea arabica) (Q5DUH8 as listed by the source): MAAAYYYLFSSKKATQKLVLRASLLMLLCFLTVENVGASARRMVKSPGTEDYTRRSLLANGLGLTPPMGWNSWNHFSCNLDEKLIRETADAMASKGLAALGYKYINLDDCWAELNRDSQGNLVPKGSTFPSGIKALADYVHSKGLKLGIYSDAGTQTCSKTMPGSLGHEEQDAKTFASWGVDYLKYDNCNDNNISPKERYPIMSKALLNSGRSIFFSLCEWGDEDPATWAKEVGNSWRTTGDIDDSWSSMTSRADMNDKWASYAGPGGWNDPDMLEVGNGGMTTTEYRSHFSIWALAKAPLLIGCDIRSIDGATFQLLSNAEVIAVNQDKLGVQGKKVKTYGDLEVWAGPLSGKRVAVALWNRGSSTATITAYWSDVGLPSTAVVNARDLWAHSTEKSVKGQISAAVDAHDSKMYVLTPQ

[5] = target: T1, Tissue alpha-L-fucosidase; assay: Inhibitory concentration against alpha-L-fucosidase of bovine epididymis
[6] = target: T3, Cytosolic beta-glucosidase (Homo sapiens, UniProt Q9H227); assay: Inhibitory concentration against beta-glucosidase
T3 sequence (Q9H227 whole entry): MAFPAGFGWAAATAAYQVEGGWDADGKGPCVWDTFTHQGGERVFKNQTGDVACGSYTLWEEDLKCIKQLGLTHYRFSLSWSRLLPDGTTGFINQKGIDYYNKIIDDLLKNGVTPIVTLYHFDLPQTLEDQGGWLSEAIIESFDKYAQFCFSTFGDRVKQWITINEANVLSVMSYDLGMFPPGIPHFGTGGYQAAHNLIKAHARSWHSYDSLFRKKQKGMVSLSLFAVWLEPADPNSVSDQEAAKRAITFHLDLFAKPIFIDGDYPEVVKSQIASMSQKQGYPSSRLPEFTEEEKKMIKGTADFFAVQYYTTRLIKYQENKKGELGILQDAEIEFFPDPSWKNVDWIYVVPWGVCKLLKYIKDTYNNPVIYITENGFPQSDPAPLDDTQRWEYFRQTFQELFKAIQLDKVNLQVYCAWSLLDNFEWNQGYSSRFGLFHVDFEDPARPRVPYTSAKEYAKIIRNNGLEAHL

[7] = target: T3, Cytosolic beta-glucosidase; assay: Inhibitory concentration against human beta-glucosidase
[8] = target: T4, Beta-galactosidase (Rattus norvegicus) (UniProt D3ZUM4); assay: Percent inhibition of beta galactosidase of rat epididymis at 1000 uM
T4 sequence (whole entry): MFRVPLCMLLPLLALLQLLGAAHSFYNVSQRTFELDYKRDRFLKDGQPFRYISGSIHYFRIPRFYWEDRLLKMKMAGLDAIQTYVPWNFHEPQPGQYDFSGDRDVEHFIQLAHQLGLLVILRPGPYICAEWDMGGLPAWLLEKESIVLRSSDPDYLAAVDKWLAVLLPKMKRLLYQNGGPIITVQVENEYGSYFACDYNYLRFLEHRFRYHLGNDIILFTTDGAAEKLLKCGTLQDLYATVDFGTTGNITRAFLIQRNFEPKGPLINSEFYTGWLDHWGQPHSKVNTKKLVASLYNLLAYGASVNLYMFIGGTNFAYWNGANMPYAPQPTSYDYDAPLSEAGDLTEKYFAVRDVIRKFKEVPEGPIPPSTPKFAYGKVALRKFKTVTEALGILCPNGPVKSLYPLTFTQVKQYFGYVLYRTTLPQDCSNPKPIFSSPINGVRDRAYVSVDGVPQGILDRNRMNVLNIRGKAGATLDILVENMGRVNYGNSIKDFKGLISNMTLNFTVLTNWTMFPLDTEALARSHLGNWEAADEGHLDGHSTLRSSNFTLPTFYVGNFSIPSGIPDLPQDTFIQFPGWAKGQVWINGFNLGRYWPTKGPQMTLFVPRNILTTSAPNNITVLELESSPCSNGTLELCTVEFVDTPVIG

inhibition [3] | inhibition [4] | SMILES | other results
< 50% |  | OC[C@@H]1NC[C@@H](O)[C@H](O)[C@@H]1O | IC50 [1]: 0.63 µM; Ki [2]: 0.08 µM
< 50% | < 50% | OC[C@@H]1NC[C@H](O)[C@@H](O)[C@@H]1O | 
< 50% | < 50% | OC[C@@H]1NC[C@@H](O)[C@@H](O)[C@@H]1O | IC50 [5]: 156 µM; Ki [2]: 14 µM
< 50% |  | OC[C@H]1NC[C@H](O)[C@H](O)[C@H]1O | 
< 50% |  | OC[C@H]1NC[C@H](O)[C@H](O)[C@@H]1O | 
< 50% |  | OC[C@H]1NC[C@@H](O)[C@H](O)[C@H]1O | IC50 [6]: 60 µM; IC50 [7]: 66 µM
< 50% |  | OC[C@H]1NC[C@H](O)[C@@H](O)[C@@H]1O [DUVOGLUSTAT] | inhibition [8]: < 50%; IC50 [6]: 80 µM; IC50 [7]: 240 µM
< 50% | < 50% | OC[C@H]1NC[C@@H](O)[C@@H](O)[C@@H]1O [DEOXYMANNOJIRIMYCIN] | IC50 [5]: 39 µM; Ki [2]: 4.7 µM
< 50% | < 50% | OC[C@@H]1NC[C@@H](O)[C@H](O)[C@H]1O | inhibition [8]: < 50%; IC50 [6]: 980 µM
< 50% |  | OC[C@H]1NC[C@H](O)[C@@H](O)[C@H]1O | 
< 50% | < 50% | OC[C@@H]1NC[C@H](O)[C@H](O)[C@H]1O | 
